The text below walks through data of patent US20060116407A1, “Amide derivatives” (priority 2004, published 2006).

The target in one experiment is T1, HER-2 (Homo sapiens, UniProt P04626).
T1 construct: endogenous in cells; host or cells: Calu-3 (ATCC HTB-55)
As to the kind of experiment: Inhibition of HER-2 phosphorylation in Calu-3 tumor cell line. The format is cell-based. Conditions: Calu-3 cells, compound 1 μM, 16 h, pY 1248 in HER-2, percentage of DMSO control; read-out: Percent inhibition of HER2-phosphorylation (compound concentration 1 μM). On the procedure:
Inhibition of HER-2 Phosphorylation in Calu-3 Tumor Cell Line
2×10^5 Calu-3 (ATTC HTB-55) cells per well were plated in a 12-well plate. After 4 days cells were starved for 16 h in Dulbecco's Modified Eagle Medium (DMEM)/0.5% Fetal Calf Serum (FCS)/1% Glutamine. During this 16 h period cells were incubated with a solution of the test compound in dimethylsulfoxide(DMSO), so that the final concentration of the compound is 1 μM and the final volume of DMSO is 0.5%. Afterwards cells were lysed in lyses buffer containing 1% Triton®X-100, 10% Glycerol, 1 mM Ethylene glycol-bis(2-aminoethylether)-N,N,N′,N′-tetraacetic acid (EGTA), 1.5 mM MgCl2, 150 mM NaCl, 50 mM 4-(2-hydroxyethyl)-1-piperazineethanesulfonic acid (HEPES) buffer pH 7.5, 1 mM Phenylmethylsulfonyl fluoride (PMSF), 10 ∥g/mL Aprotinin and […] Orthovanadate. Cell lysates were analyzed on a Sodium Dodecyl Sulfate Polyacrylamide Gel Electrophoresis (SDS PAGE) and after transfer to a nitrocellulose membrane detected with an antibody specifically recognizing the pY 1248 in HER-2. Inhibition of HER-2 phosphorylation is calculated as percentage of the control, which is treated with DMSO only.

Another experiment concerns HEK293 cells. As to the kind of experiment: Viability assay of HEK293 cells (CellTiter-Glo). Conditions: Homo sapiens, 168 h, 7 days, 3 μM to 0.00015 μM, luminescence. The format is cell-based. On the procedure: Viability Assay of HEK293 Cells
A viability assay was performed using the CellTiter-Glo™ Luminescent Cell Viability Assay (see Promega Corporation's Technical Publication No. 288, pp. 1-11 [revised 2.04] which is hereby incorporated by reference in its entirety). This assay is a homogeneous method of determining the number of viable cells in culture based on quantitation of the ATP present, which signals the presence of metabolically active cells. The assay is designed for use with multiwell formats, making it ideal for automated high-throughput screening (HTS), cell proliferation and cytotoxicity assays. The homogeneous assay procedure involves adding a single reagent (containing luciferase, luciferan substrate, and buffer) directly to cells cultured in serum-supplemented medium. Cell washing, removal of medium and multiple pipetting steps are not required. The system detects as few as 15 cells/well in a 384-well format in 10 minutes after adding reagent and mixing.
The homogeneous “add-mix-measure” format results in cell lysis and generation of a luminescent signal proportional to the amount of ATP present. The amount of ATP is directly proportional to the number of cells present in culture. The above-referenced assay generates a “glow-type” luminescent signal, produced by the luciferase reaction, which has a half-life generally greater than five hours, depending on cell type and medium used. The extended half-life eliminates the need to use reagent injectors and provides flexibility for continuous or batch mode processing of multiple plates. The unique homogeneous format avoids errors that may be introduced by other ATP measurement methods that require multiple steps.
HEK293 cells (human embryonic kidney cell line transformed by Adenovirus 5 fragments, ATCC-No. CRL 1573) were cultivated in Dulbecco's Modified Eagle Medium (DMEM) (1×) liquid (high glucose) (which includes L-Alanyl-L-Glutamine [a stabilized a form of L-Glutamine], 4500 mg/L glucose, and 110 mg/L sodium pyruvate) from Invitrogen Corporation (Invitrogen Catalog Number 31966-021 [now 10569-010] which is hereby incorporated by reference in its entirety), 5% Fetal Calf Serum (FCS, Sigma Cat-No. F4135 (FBS) which is hereby incorporated by reference in its entirety), and 100 Units/ml penicillin/100 μg/ml streptomycin(=Pen/Strep from Invitrogen Cat. No. 15140 which is hereby incorporated by reference in its entirety). For the assay the cells were seeded in 384 well plates, 5000 cells per well, in the same medium. The next day the test compounds were added in various concentrations ranging from 3 μM to 0.00015 μM (10 concentrations, 1:3 diluted). After 7 days the above viability assay was performed in accordance with the following steps: • Step 1: The cell-plate was equilibrated to room temperature for approximately 30 minutes and than the assay reagent was added. • Step 2: The contents were carefully mixed for 15 minutes to induce cell lysis. • Step 3: After 45 minutes the luminescent signal was measured in Victor 2, (scanning multiwell spectrophotometer, Wallac). Details: 1st Day: • Medium: Dulbecco's Modified Eagle Medium (DMEM) (1×) liquid (high glucose) (which includes L-Alanyl-L-Glutamine [a stabilized a form/source of L-Glutamine], 4500 mg/L glucose, and 110 mg/L sodium pyruvate) from Invitrogen Corporation (Invitrogen Catalog Number 31966-021 [now 10569-010]), 5% Fetal Calf Serum (FCS, Sigma Cat-No. F4135 (FBS)), and Pen/Strep (Invitrogen Cat. No. 15140). • HEK293 (ATCC-No. CRL 1573): 5000 cells in 60 μl per well of 384 well plate. (Greiner 781098, white plates) • Incubate 24 h at 37° C., 5% CO2 2nd Day: Induction (Substance Testing):
In general the dilution steeps are 1:3 a) Add 8 μl of 10 mM stock solution of compound to 72 μl DMSO b) dilute 9×1:3 (always 30 μl to 60 μl DMSO) in this DMSO dilution row (results in 10 wells with concentrations from 1000 μM to 0.06 μM) c) dilute each concentration 1: 4.8 (10 μl compound dilution to 38 μl medium) […]

T1 sequence (P04626 23-1255): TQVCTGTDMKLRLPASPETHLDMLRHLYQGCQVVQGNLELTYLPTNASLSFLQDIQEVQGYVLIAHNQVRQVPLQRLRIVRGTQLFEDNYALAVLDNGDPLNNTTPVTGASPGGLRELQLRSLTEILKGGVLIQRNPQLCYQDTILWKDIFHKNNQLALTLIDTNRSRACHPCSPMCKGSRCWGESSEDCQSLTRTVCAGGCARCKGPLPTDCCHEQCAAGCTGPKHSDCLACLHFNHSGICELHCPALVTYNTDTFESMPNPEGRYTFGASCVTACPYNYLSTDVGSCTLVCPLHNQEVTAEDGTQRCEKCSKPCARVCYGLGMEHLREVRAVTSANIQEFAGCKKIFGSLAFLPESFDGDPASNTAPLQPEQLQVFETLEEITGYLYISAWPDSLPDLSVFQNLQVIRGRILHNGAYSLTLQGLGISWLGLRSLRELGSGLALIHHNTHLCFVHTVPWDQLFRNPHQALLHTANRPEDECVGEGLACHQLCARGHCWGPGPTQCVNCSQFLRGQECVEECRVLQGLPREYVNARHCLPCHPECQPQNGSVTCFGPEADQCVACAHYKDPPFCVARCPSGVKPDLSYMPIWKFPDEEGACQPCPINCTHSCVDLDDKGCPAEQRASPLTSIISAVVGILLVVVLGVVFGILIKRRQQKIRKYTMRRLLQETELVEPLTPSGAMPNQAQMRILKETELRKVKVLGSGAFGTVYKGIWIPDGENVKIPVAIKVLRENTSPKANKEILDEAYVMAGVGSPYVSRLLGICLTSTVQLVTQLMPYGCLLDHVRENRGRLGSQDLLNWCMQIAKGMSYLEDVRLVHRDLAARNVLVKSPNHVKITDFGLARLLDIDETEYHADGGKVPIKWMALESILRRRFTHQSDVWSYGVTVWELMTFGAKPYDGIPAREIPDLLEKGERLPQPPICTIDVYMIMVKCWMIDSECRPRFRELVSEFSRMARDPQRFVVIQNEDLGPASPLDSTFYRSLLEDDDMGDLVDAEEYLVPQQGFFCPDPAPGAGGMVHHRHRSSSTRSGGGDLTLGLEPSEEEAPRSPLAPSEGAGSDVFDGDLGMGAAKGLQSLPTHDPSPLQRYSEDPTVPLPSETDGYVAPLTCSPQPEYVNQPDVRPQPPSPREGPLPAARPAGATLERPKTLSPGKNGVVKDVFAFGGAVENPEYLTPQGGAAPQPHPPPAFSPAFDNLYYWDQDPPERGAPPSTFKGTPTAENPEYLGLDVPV

As to `CC(C)(C)c1ccc(C(=O)Nc2nc(COc3ccc(CCCCn4ccnn4)cc3)cs2)cc1` [Example 52-21, 4-tert-Butyl-N-{4-[4-(4-[1,2,3]triazol-1-yl-butyl)-phenoxymethyl]-thiazol-2-yl}-benzamide], the inhibition at 1 µM at HER-2 is more than 80%. The half-inhibitory concentration (IC50) in the experiment with HEK293 cells lay in the range of 0.005 to 0.5 µM.
Regarding `O=C(Nc1ccc(C(F)(F)F)cc1)c1csc(COc2ccc(CCCCn3ccnn3)cc2)n1` [Example 41, 2-[4-(4-[1,2,3]Triazol-1-yl-butyl)-phenoxymethyl]-thiazole-4-carboxylic acid (4-trifluoromethyl-phenyl)-amide], the inhibition at 1 µM on HER-2 was more than 80%. The molecule also showed a half-maximal inhibitory concentration (IC50) with HEK293 cells of 0.005 to 0.5 µM.
With `O=C(Nc1ccc(C(F)(F)F)cc1)c1coc(COc2ccc(CCCCn3ccnn3)cc2)n1` [Example 13, 2-[4-(4-[1,2,3]Triazol-1-yl-butyl)-phenoxymethyl]-oxazole-4-carboxylic acid (4-trifluoromethyl-phenyl)-amide], the inhibition at 1 µM at HER-2 was more than 80%. Also, in the experiment with HEK293 cells, the IC50 was in the range of 0.005 to 0.5 µM.
For the molecule `O=C(Nc1nc(COc2ccc(CCCCn3ccnn3)cc2)cs1)c1ccc(Cl)cc1` [Example 52-5, 4-Chloro-N-{4-[4-(4-[1,2,3]triazol-1-yl-butyl)-phenoxymethyl]-thiazol-2-yl}-benzamide], the inhibition at 1 µM on HER-2 lay within 70 to 80%. This molecule displayed an IC50 with HEK293 cells of 0.005 to 0.5 µM.
In the same order, the values of `O=C(Nc1ccc(S(F)(F)(F)(F)F)cc1)c1nc(COc2ccc(CCCCn3ccnn3)cc2)cs1` [Example 40, 4-[4-(4-[1,2,3]Triazol-1-yl-butyl)-phenoxymethyl]-thiazole-2-carboxylic acid (4-pentafluorosulfanyl-phenyl)-amide] are 70 to 80% and 0.005 to 0.5 µM.
In the same order, the values of `O=C(Nc1ccc(OC(F)(F)F)cc1)c1nc(COc2ccc(CCCCn3ccnn3)cc2)cs1` [Example 39, 4-[4-(4-[1,2,3]Triazol-1-yl-butyl)-phenoxymethyl]-thiazole-2-carboxylic acid (4-trifluoromethoxy-phenyl)-amide] are 87% and 0.005 to 0.5 µM.
